The values that follow come from patent publication US20240287079A1, “6-AMINOPYRAZOLOPYRIMIDINE COMPOUND AND PHARMACEUTICAL USE THEREOF” (Japan Tobacco Inc., priority 2021, published 2024).

This assay deals with NLRP3 inflammasome (Homo sapiens (Human), UniProt Q96P20). The assay can be described thus: Evaluation of NLRP3 inflammasome inhibitory activity (inhibition of IL-1β production in LPS/Nigericin-stimulated THP1-Null cells). Conditions: IL-1β production in THP1-Null cells; for IC50: PMA, LPS 1 μg/mL, Nigericin 7.5 μmol/L, AlphaLISA; for inhibition at 0.0024 µM: test compound 0.0024 μM. The class given is cell-based. As for the experimental part:
The NLRP3 inflammasome inhibitory activity of test compounds were evaluated on the basis of the inhibitory activity of the IL-1β production in THP1-Null cells (Product Number: thp-null, InvivoGen). […] The supernatant of the culture was removed, and thereto was added media for assay (25 μL/well) containing 1 μg/mL Lipopolysaccharides (Product Number: L2654, Sigma-Aldrich (registered trademark)). […] The supernatant of the culture was removed. […] A solution containing a test compound (20 μL/well) was added to test compound-setting wells. […] The supernatant of the culture was cryonically stored (set at −20° C.) until measurement of IL-1β.
The amount of IL-1β in the culture supernatant was quantitated with AlphaLISA(registered trademark) Human IL-1β Detection Kit (Product Number: AL220C, Perkin Elmer). Fluorescence intensity was measured with a microplate reader EnSpier (Model number: 2300-00J, Perkin Elmer) or EnSight(Model number: HH34000000, Perkin Elmer) according to procedure manuals attached thereto. Inhibition rates of the test compound-setting wells were calculated on the basis of 100% for the blank-setting wells and 0% for the control-setting wells.

By IC50 is commonly meant the concentration at which inhibition is half-maximal. A higher IC50 goes with lower potency. The term inhibition denotes how much of the control response was suppressed. A higher inhibition goes with a response far below the control.

Molecules are shown by their SMILES.

Chain of NLRP3 inflammasome (Q96P20 whole entry): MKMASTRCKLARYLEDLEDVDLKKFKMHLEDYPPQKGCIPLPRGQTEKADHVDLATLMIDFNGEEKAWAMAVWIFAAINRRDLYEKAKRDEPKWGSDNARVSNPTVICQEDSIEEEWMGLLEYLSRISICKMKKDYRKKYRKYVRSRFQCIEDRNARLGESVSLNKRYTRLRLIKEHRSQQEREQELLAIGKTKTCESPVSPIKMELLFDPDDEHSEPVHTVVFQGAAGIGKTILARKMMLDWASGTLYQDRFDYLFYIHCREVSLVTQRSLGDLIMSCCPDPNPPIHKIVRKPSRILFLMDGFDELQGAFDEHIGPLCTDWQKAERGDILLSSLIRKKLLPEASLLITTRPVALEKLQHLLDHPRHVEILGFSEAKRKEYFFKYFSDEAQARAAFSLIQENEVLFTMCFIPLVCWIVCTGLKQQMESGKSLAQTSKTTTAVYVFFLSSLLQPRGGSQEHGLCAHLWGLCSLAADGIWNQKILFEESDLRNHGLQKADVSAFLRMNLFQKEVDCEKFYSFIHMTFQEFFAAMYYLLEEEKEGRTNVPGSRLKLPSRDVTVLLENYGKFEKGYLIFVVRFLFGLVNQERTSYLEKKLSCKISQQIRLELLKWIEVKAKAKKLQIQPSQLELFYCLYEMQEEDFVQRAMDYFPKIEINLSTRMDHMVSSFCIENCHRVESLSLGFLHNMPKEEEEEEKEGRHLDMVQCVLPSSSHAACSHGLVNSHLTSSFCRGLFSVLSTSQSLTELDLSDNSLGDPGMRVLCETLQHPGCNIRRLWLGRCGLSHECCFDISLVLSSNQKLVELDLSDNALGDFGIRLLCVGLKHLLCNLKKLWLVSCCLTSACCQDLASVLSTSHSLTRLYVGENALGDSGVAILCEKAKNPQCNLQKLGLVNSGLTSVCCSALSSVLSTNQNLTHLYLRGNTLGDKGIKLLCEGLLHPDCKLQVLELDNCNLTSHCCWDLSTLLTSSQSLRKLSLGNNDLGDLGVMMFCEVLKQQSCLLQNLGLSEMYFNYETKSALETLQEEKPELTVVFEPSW

On to `C[C@@H]1COCCN1c1nc2nn(-c3ccc(C4CC4)cc3C(F)(F)F)cc2c(=O)[nH]1` [Example 261], for which it took 5.5 nM to reach half-maximal inhibition (IC50). As for `O=c1[nH]c(N2CCCC2)nc2nn(-c3ccc(C(F)(F)F)cc3)cc12` [Example 49], the IC50 was found to be 340 nM. Same read-out and setting: with `Cc1cc(Br)cc(C)c1-n1cc2c(=O)[nH]c(N3CC4CC3CN4S(C)(=O)=O)nc2n1` (racemic) [Example 219] the figure was 19 nM. Regarding `N#Cc1ccccc1-n1cc2c(=O)[nH]c(N3CCCC3)nc2n1` [Example 29], testing at 24 µM (test compound 24 μM) gave an inhibition of 2%.

With `Cc1cc(Br)cc(C)c1-n1cc2c(=O)[nH]c(N3CCOCCO3)nc2n1` [Example 339], the IC50 amounted to 37 nM. Same read-out and setting: for `Cc1cc(Br)cc(C)c1-n1cc2c(=O)[nH]c(NCCF)nc2n1` [Example 267] the value was 6.5 nM.

`COc1cc(C)c(-n2cc3c(=O)[nH]c(N4CCCC4)nc3n2)c(C)c1` [Example 345] had an IC50 of 16 nM. On to `O=c1[nH]c(N2CCOCC2)nc2nn(-c3ccc(Br)cc3C(F)F)cc12` [Example 243], for which the IC50 came to 68 nM.

Consider `Cc1cc(C)c(-n2cc3c(=O)[nH]c(N4CCC(C)C4)nc3n2)c(C)c1` (racemic) [Example 109], for which inhibition was half-maximal at 64 nM (IC50). In turn, `Cc1cc(C)c(-n2cc3c(=O)[nH]c(N4CCN(C(=O)OC(C)(C)C)CC4)nc3n2)c(C)c1` [Example 101] returned a half-maximal inhibitory concentration (IC50) of 5.6 nM. As to `O=c1[nH]c(N2CCCC2)nc2nn(-c3ccc(C(F)(F)F)cc3Cl)cc12` [Example 86], the IC50 is 2.9 nM. Compound `Cc1cc(Br)ccc1-n1cc2c(OCCO)nc(N3CCOCC3)nc2n1` [Example 153] returned a concentration for half-maximal inhibition (IC50) of 460 nM. Same read-out and setting: for `Cc1cc(Br)cc(C)c1-n1cc2c(=O)[nH]c(N3CC4CC(C3)N4S(C)(=O)=O)nc2n1` [Example 222] the value was 18 nM. `O=c1[nH]c(N2CCOCC2)nc2nn(-c3ccc(Br)cc3C3CC3)cc12` [Example 196]: the IC50 was determined as 11 nM. `CO[C@@H]1CCN(c2nc3nn(-c4c(C)cc(Br)cc4C)cc3c(=O)[nH]2)C1` [Example 316]: it took 6.4 nM to reach half-maximal inhibition (IC50).

With `Cc1cc(C(F)(F)F)cc(C)c1-n1cc2c(=O)[nH]c(N3CCOCCO3)nc2n1` [Example 357], 28 nM corresponded to half-maximal inhibition (IC50). `Cc1cc(Br)cc(C)c1-n1cc2c(=O)[nH]c(NC3CC3)nc2n1` [Example 230] came in with an inhibition at 0.0024 µM of 60%. In turn, `Cc1cc(C2CC2)cc(C)c1-n1cc2c(=O)[nH]c(N3CCOC[C@H]3C)nc2n1` [Example 275] registered an IC50 of 8.5 nM. On the same count and under the same terms, with `Cc1cc(C)c(-n2cc3c(=O)[nH]c(N4CCN(S(=O)(=O)C5CC5)CC4)nc3n2)c(C)c1` [Example 103] the figure was 6.5 nM. Still for that read-out and setting: with `Cc1cccc(-n2cc3c(=O)[nH]c(N4CCCC4)nc3n2)c1` [Example 43] the figure was 3400 nM; with `Cc1ccc(-n2cc3c(=O)[nH]c(N4CCOCC4)nc3n2)c(C)c1` [Example 58], 120 nM; with `Cc1cc(C)c(-n2cc3c(=O)[nH]c(N4CCCC4)nc3n2)c(C)c1` [Example 63], 17 nM.

`COC[C@H]1CCN(c2nc3nn(-c4ccc(Br)cc4C)cc3c(=O)[nH]2)CCO1` [Example 193] displayed an IC50 of 42 nM.

For `COCC(=O)N1CC2CC1CN2c1nc2nn(-c3c(C)cc(C4CC4)cc3C)cc2c(=O)[nH]1` (racemic) [Example 234], it took 24 nM to reach half-maximal inhibition (IC50). `CC(C)(C)OC(=O)N1CC2CN(c3nc4nn(-c5ccc(C(F)(F)F)cc5Cl)cc4c(=O)[nH]3)CC2C1` (stereo not shown) [Example 179]: half-maximal inhibition (IC50) was put at 27 nM.

In turn, `O=c1[nH]c(N2CCOCC2)nc2nn(-c3c(Cl)cc(C(F)(F)F)cc3OCC3CC3)cc12` [Example 190] gave an IC50 of 41 nM.

For `CC(=O)N(C)c1nc2nn(-c3ccc(C)cc3C)cc2c(=O)[nH]1` [Example 66], the half-inhibitory concentration (IC50) came out at 4300 nM. The same measure, in the same setting: with `Cc1cc(Br)ccc1-n1cc2c(=O)[nH]c(N3CC(F)(F)C3)nc2n1` [Example 76] the figure was 4.8 nM; with `Cc1ccccc1-n1cc2c(=O)[nH]c(Nc3ccccc3)nc2n1` [Example 24], 2400 nM.

`O=c1[nH]c(N2CCOCC2)nc2nn(-c3ccc(C4CC4)cc3CC3CC3)cc12` [Example 321]: the IC50 was determined as 29 nM.

For `Cc1ccccc1-n1cc2c(=O)[nH]c(N3CCC(C#N)C3)nc2n1` (racemic) [Example 26], the IC50 turned out to be 1300 nM. The same measure, in the same setting: with `Cc1cc(C)c(-n2cc3c(=O)[nH]c(N4CCC5(CC4)COC5)nc3n2)c(C)c1` [Example 118] the figure was 44 nM; with `Cc1cc(Br)ccc1-n1cc2c(=O)[nH]c(N3CCN(C(=O)C4CC4)CC3)nc2n1` [Example 140], 5.8 nM; with `COC1CN(c2nc3nn(-c4c(C)cccc4C)cc3c(=O)[nH]2)C1` [Example 50], 1200 nM.

The compound `COCc1cc(Cl)ccc1-n1cc2c(=O)[nH]c(N3CCCC3)nc2n1` [Example 144] had an IC50 of 24 nM.

In turn, `Cc1cc(C(F)(F)F)cc(C)c1-n1cc2c(=O)[nH]c(N3CCCC3)nc2n1` [Example 281] gave an IC50 of 13 nM. On the same count and under the same terms, with `Cc1cc(C2CC2)cc(C)c1-n1cc2c(=O)[nH]c(N3CCC(C#N)C3)nc2n1` (racemic) [Example 324] the figure was 6.2 nM; with `Cc1c(-n2cc3c(=O)[nH]c(N4CCCC4)nc3n2)c(C(F)(F)F)nn1C(C)C` [Example 346], 81 nM. Same read-out and setting: with `Cc1cc(OC(F)(F)F)cc(C)c1-n1cc2c(=O)[nH]c(N3CCOCC3)nc2n1` [Example 200] the figure was 29 nM; with `Cc1ccccc1-n1cc2c(=O)n(C)c(N3CCCC3)nc2n1` [Example 14], 7200 nM; with `O=c1[nH]c(N2CCCC2)nc2nn(-c3cccc4ccccc34)cc12` [Example 68], 1200 nM. Compound `COCCOc1nc(N2CCOCC2)nc2nn(-c3ccc(Br)cc3C)cc12` [Example 154] registered an IC50 of 590 nM. `Nc1cc(C(F)(F)F)cc(Cl)c1-n1cc2c(=O)[nH]c(N3CCOCC3)nc2n1` [Example 271] yielded an IC50 of 20 nM. Take `Cc1cc(Br)ccc1-n1cc2c(=O)n(CC#N)c(N3CCOCC3)nc2n1` [Example 172]: the midpoint of inhibition, the IC50, lay at 190 nM. Still for that read-out and setting: with `Cc1cc(C)c(-n2cc3c(=O)[nH]c(N4CCC(S(C)(=O)=O)C4)nc3n2)c(C)c1` (racemic) [Example 112] the figure was 55 nM. In turn, `Cc1cc(C(F)(F)F)cc(C)c1-n1cc2c(=O)[nH]c(N3CCOC[C@H]3C)nc2n1` [Example 251] displayed an inhibition at 0.0024 µM of 65%. For the compound `O=c1[nH]c(N2CCOCC2)nc2nn(-c3ccc(C(F)(F)F)cc3Cl)cc12` [Example 128], 28 nM corresponded to half-maximal inhibition (IC50). With `Cc1cc(Br)cc(C)c1-n1cc2c(=O)[nH]c(N3CCOC4CC43)nc2n1` (racemic) [Example 289], the IC50 was 10 nM. With `Cc1ccccc1-n1cc2c(=O)[nH]c(N(C)C(C)C)nc2n1` [Example 23], half-maximal inhibition (IC50) was put at 1900 nM. Still for that read-out and setting: with `Cn1c(N2CC3CC(C2)O3)nc2nn(-c3ccc(C4CC4)cc3C(F)(F)F)cc2c1=O` [Example 313] the figure was 240 nM.

The compound `O=c1[nH]c(N2CCCC2CO)nc2nn(-c3ccc(C(F)(F)F)cc3Cl)cc12` (racemic) [Example 178] registered an IC50 of 33 nM.

Turning to `CCOC1CCN(c2nc3nn(-c4c(C)cccc4C)cc3c(=O)[nH]2)C1` (racemic) [Example 48], the IC50 is 820 nM.

Turning to `COc1ccc(-n2cc3c(=O)[nH]c(N4CCCC4)nc3n2)c(C)c1` [Example 171], half-maximal inhibition (IC50) required 29 nM. The same measure, in the same setting: with `Cc1cc(OC(F)F)cc(C)c1-n1cc2c(=O)[nH]c(N3CCOCC3)nc2n1` [Example 298, 2-(4-(difluoromethoxy)-2,6-dimethylphenyl)-6-morpholino-2,5-dihydro-4H-pyrazolo[3,4-d]pyrimidin-4-one] the figure was 27 nM; with `COc1nc(N2CCCC2)nc2nn(-c3ccccc3C)cc12` [Example 13], 7700 nM; with `Cc1cc(Br)cc(C)c1-n1cc2c(=O)[nH]c(N3CC4(CC(O)C4)C3)nc2n1` [Example 199], 6.8 nM. On the same count and under the same terms, with `CCCNc1nc2nn(-c3ccccc3C)cc2c(=O)[nH]1` [Example 19] the figure was 1400 nM; with `Cc1cc(Br)cc(C(F)(F)F)c1-n1cc2c(=O)[nH]c(N3CCOCC3)nc2n1` [Example 174], 12 nM; with `COC(c1cc(Br)ccc1-n1cc2c(=O)[nH]c(N3C[C@H]4C[C@@H]3CO4)nc2n1)C1CC1` (stereo partly shown) [Example 314], 1100 nM. Regarding `Cc1cc(Br)cc(C)c1-n1cc2c(=O)[nH]c(NC(C)C)nc2n1` [Example 235], at 0.0024 µM the inhibition was 52%. `Cc1ccccc1-n1cc2c(=O)[nH]c(N3CCC(O)C3)nc2n1` (racemic) [Example 21]: the IC50 is 1600 nM. The same measure, in the same setting: with `Cc1cccc(C)c1-n1cc2c(=O)[nH]c(N3CC(OCC(F)(F)F)C3)nc2n1` [Example 51] the figure was 2200 nM; with `CCCN(C)c1nc2nn(-c3ccccc3C)cc2c(=O)[nH]1` [Example 18], 12000 nM.

Consider `Cc1cc(Br)cc(C)c1-n1cc2c(=O)[nH]c(NC3COC3)nc2n1` [Example 274], for which the IC50 stood at 580 nM.

In the case of `O=c1[nH]c(N2C[C@@H]3C[C@H]2CO3)nc2nn(-c3ccc(C4CC4)cc3C(F)(F)F)cc12` [Example 263], the half-inhibitory concentration (IC50) stood at 8.6 nM. On the same count and under the same terms, with `Cc1ccc(-n2cc3c(=O)[nH]c(N4CCOCC4)nc3n2)c(C)c1` [Example 126] the figure was 53 nM. In turn, `Cc1cc(Br)ccc1-n1cc2c(=O)[nH]c(N3CCOCC3)nc2n1` [Example 69] yielded an IC50 of 24 nM.
